# “And” between values parts separate entries of the source, which are not always exact repeats. Equal values may be shown once.
# Assays:
# U118 cells = assay: Levels of SM in cell membranes, U118; type: cell-based, human; set-up: SM levels in the cell membrane (activation of enzyme EC 2.7.8.27): dose or concentration left out as unconfirmed; settings: for SM levels in the cell membrane (activation of enzyme EC 2.7.8.27): U118, 24 hours
# SF767 cells = assay: Cell growth inhibition, SF767; type: cell-based, human; set-up: key to Effect (anti-proliferation effect): +: inhibition of cell growth; −: absence of effect; settings: for IC50: SF767, sodium salt form
# Excerpt: (§1) At this respect, concentrations which inhibit growth of tumour cells (IC50) are lower for the enantiomer S ([−]) in all studied tumour lines (Table 5). […] In all of the cases, the molecules employed were in the form of sodium salt.
# U87 cells = assay: Cell growth inhibition, U87; type: cell-based, human; set-up: key to Effect (anti-proliferation effect): +: inhibition of cell growth; −: absence of effect; settings: for IC50: U87, sodium salt form
# Excerpt: as §1
# SH-SY5Y cells = assay: Cell growth inhibition, SH-SY5Y; type: cell-based, human; set-up: key to Effect (anti-proliferation effect): +: inhibition of cell growth; −: absence of effect; settings: for IC50: SH-SY5Y, sodium salt form
# Excerpt: as §1
# A549 cells = assay: Cell growth inhibition, A549; type: cell-based, human; set-up: key to Effect (anti-proliferation effect): +: inhibition of cell growth; −: absence of effect
# Excerpt: as §1
# Jurkat cells = assay: Cell growth inhibition, Jurkat; type: cell-based, human; set-up: key to Effect (anti-proliferation effect): +: inhibition of cell growth; −: absence of effect; settings: for IC50: sodium salt form
# Excerpt: as §1
# HepG2 cells = assay: Cell growth inhibition, HepG2; type: cell-based, human; set-up: key to Effect (anti-proliferation effect): +: inhibition of cell growth; −: absence of effect; settings: for IC50: HepG2, sodium salt form
# Excerpt: as §1
# MDA-MB-231 cells = assay: Cell growth inhibition, MDA-MB-231; type: cell-based, human; set-up: key to Effect (anti-proliferation effect): +: inhibition of cell growth; −: absence of effect; settings: for IC50: MDA-MB-231, sodium salt form
# Excerpt: as §1
# PC3 cells = assay: Cell growth inhibition, PC3; type: cell-based, human; set-up: key to Effect (anti-proliferation effect): +: inhibition of cell growth; −: absence of effect; settings: for IC50: PC3, sodium salt form
# Excerpt: as §1
# BXPC3 cells = assay: Cell growth inhibition, BXPC3; type: cell-based, human; set-up: key to Effect (anti-proliferation effect): +: inhibition of cell growth; −: absence of effect; settings: for IC50: BXPC3, sodium salt form
# Excerpt: as §1
# HeLa cells = assay: Cell growth inhibition, HeLa; type: cell-based, human; set-up: key to Effect (anti-proliferation effect): +: inhibition of cell growth; −: absence of effect; settings: for IC50: sodium salt form
# Excerpt: as §1
# HT29 cells = assay: Cell growth inhibition, HT29; type: cell-based, human; set-up: key to Effect (anti-proliferation effect): +: inhibition of cell growth; −: absence of effect; settings: for IC50: HT29, sodium salt form
# Excerpt: as §1
# IMR90 cells = assay: Cell growth inhibition, IMR90; type: cell-based, human; set-up: key to Effect (anti-proliferation effect): +: inhibition of cell growth; −: absence of effect; settings: for IC50: IMR90 non tumor fibroblast, sodium salt form
# Excerpt: as §1
# MRC-5 cells = assay: Cell growth inhibition, MRC-5; type: cell-based, human; set-up: key to Effect (anti-proliferation effect): +: inhibition of cell growth; −: absence of effect; settings: for IC50: MRC-5 non tumor fibroblast, sodium salt form
# Excerpt: as §1
# A375 cells = assay: Cell growth inhibition, A375; type: cell-based, human; settings: A375, sodium salt form
# Excerpt: as §1
# [1] = Toxicity and side effects (symptoms) in treated tumour-bearing mice; type: in vivo; settings: for Toxicity: symptoms registered / Toxicity: Behaviour symptoms, percentage of animals / Toxicity: Diarrhoea, percentage of animals: 15 days
# Excerpt: This example recounts the study carried out on immuno-depressed mice infected with human glioma (SF767) cells and treated for 15 days (orally) with the indicated dose (Table 3).
# Body weight of SHR rats = type: in vivo; settings: 600 mg/kg·day, 5 days, orally
# Method: C. Effect on body weight: SHR rats were treated with 2OHOA racemic (+/−) and its optic isomers [−]2OHOA and [+]2OHOA (600 mg/kg·day, 5 days, orally). […] Values of average±EEM body weight (abscises axis, n=6) are shown.
# (§2) What is more, we studied the effect of the isomers above on arterial pressure, body weight, and the level of cholesterol, triglycerides and glycemia (glucose in plasma) in SHR rats SHR (FIGS. 8B, 8C and 8D and 8E). […] Similarly, during 1 and 5 days of treatment, rats treated with the racemic loosed 11 gram of weight (approximately a 3% of their body weight), whereas animals of the group treated with enantiomer [−]2OHOA loosed 21 grams and animals of the group treated with enantiomer [+]2OHOA only loosed 7 grams of weight. On the other hand, a higher effect of enantiomer [+]2OHOA in the reduction of triglyceride (TG) and total cholesterol (CHOt) levels was observed (FIG. 8D) At this respect, plasmatic basal levels of TG in SHR rats are of 108 mg/dl and were reduced to 56 mg/dl after 2 weeks treatment […]. On the other hand, treatment with enantiomer [+]2OHOA inducted a reduction of plasmatic TG levels to 47 mg/dl, whereas enantiomer [−]2OHOA only produced a modest reduction to 81 mg/dl. In parallel, levels of CHOt were reduced from 73 mg/dl to 43 mg/dl (racemic), 36 mg/dl (enantiomer [+]2OHOA) and 59 mg/dl (enantiomer [−]2OHOA), respectively.
# [2] = Triglyceride and total cholesterol levels in SHR rats; type: in vivo; settings: 600 mg/kg every 12 h, orally; for plasmatic TG levels after treatment: 2 weeks, basal 108 mg/dl; for CHOt levels after treatment: 15 days, basal 73 mg/dl
# Method: D. Effects on cholesterol and triglyceride levels: SHR rats were treated with 2OHOA racemic (+/−) and its optic isomers [−]2OHOA and [+]2OHOA (600 mg/kg every 12 h, 15 days, orally). […] Values of average±EEM seric levels of lipids expressed as mg/dl (ordinate axis; n=6) are shown.
# as §2
# [3] = Plasmatic glucose levels in SHR rats; type: in vivo; settings: 600 mg/kg, 12 h, 15 days, by mouth
# Method: E. Effects on […] (plasmatic glucose levels): SHR rats were treated with vehicle (control), racemic 2OHOA and their optical isomers [−] 2OHOA and [+]2OHOA (600 mg/kg, 12 h, 15 days, by mouth). The racemic compound and the [−]
# as §2
smiles,measurement,setting,value
CCCCCCCC/C=C\CCCCCCC(O)C(=O)O (centres unmarked) [[+]2OHOA] [[+]HOOC—HOCH—(CH2)6—(CH═CH—CH2)1—(CH2)6—CH3],SM levels in the cell membrane (activation of enzyme EC 2.7.8.27),U118 cells,decrease in the level of SM in membranes
same,IC50,SF767 cells,304 µM
same,IC50,U87 cells,148 µM
same,IC50,SH-SY5Y cells,193 µM
same,IC50,"A549 cells; A549, sodium salt form",133 µM
same,IC50,"A549 cells; A549, sodium salt form, listed as [+]2OH18:1",133 ± 9.8 µM
same,IC50,Jurkat cells,97.2 µM
same,IC50,HepG2 cells,76.7 µM
same,IC50,MDA-MB-231 cells,328 µM
same,IC50,PC3 cells,233 µM
same,IC50,BXPC3 cells,154 µM
same,IC50,HeLa cells,206 µM
same,IC50,HT29 cells,342 µM
same,IC50,IMR90 cells,> 5000 µM
same,IC50,MRC-5 cells,> 5000 µM
same,IC50,A375 cells,407 µM
same,Toxicity: symptoms registered,[1]; 50 mg/kg orally,No
same,Toxicity: symptoms registered,[1]; 75 mg/kg orally,No
same,Toxicity: symptoms registered,[1]; 100 mg/kg orally,No
same,Toxicity: symptoms registered,[1]; 150 mg/kg orally,No
same,"Toxicity: Behaviour symptoms, percentage of animals",[1]; 200 mg/kg orally,Behaviour 16%
same,"Toxicity: Diarrhoea, percentage of animals",[1]; 200 mg/kg orally,Diarrhoea 16%
same,"Toxicity: Behaviour symptoms, percentage of animals",[1]; 400 mg/kg orally,Behaviour 32%
same,"Toxicity: Diarrhoea, percentage of animals",[1]; 400 mg/kg orally,Diarrhoea 16%
same,"Toxicity: Behaviour symptoms, percentage of animals",[1]; 600 mg/kg orally,Behaviour 50%
same,"Toxicity: Diarrhoea, percentage of animals",[1]; 600 mg/kg orally,Diarrhoea 66%
same,loss of body weight,Body weight of SHR rats; 600 mg/kg,7 gram
same,plasmatic TG levels after treatment,[2]; 600 mg/kg,56 mg/dL and 47 mg/dL
same,CHOt levels after treatment,[2]; 600 mg/kg,36 mg/dL
same,plasma glucose levels (glycemia),[3],reduction without statistical significance
CCCCCCCC/C=C\CCCCCCC(O)C(=O)O (centres unmarked) [[−]2OHOA] [[−] HOOC—HOCH—(CH2)6—(CH═CH—CH2)1—(CH2)6—CH3],% SM after treatment,"U118 cells; U118, 200 μM [−]2OHOA",28%
same,SM levels in the cell membrane (activation of enzyme EC 2.7.8.27),U118 cells,even greater increases in SM levels
same,Effect (anti-proliferation effect),SF767 cells; SF767,+
same,IC50,SF767 cells,102 µM
same,Effect (anti-proliferation effect),U87 cells; U87,+
same,IC50,U87 cells,53.5 µM
same,IC50,SH-SY5Y cells,64.4 µM
same,Effect (anti-proliferation effect),SH-SY5Y cells; SH-SYSY,+
same,Effect (anti-proliferation effect),A549 cells; A549,+
same,IC50,"A549 cells; A549, sodium salt form",52.6 µM
same,IC50,"A549 cells; A549, sodium salt form, listed as [−]2OH18:1",52.6 ± 9.5 µM
same,Effect (anti-proliferation effect),Jurkat cells,+
same,IC50,Jurkat cells,35.7 µM
same,Effect (anti-proliferation effect),HepG2 cells; HepG2,+
same,IC50,HepG2 cells,32.9 µM
same,Effect (anti-proliferation effect),MDA-MB-231 cells; MDA-MB-231,+
same,IC50,MDA-MB-231 cells,145 µM
same,Effect (anti-proliferation effect),PC3 cells; PC3,+
same,IC50,PC3 cells,87 µM
same,Effect (anti-proliferation effect),BXPC3 cells; BXPC3,+
same,IC50,BXPC3 cells,61.8 µM
same,Effect (anti-proliferation effect),HeLa cells,+
same,IC50,HeLa cells,74.5 µM
same,Effect (anti-proliferation effect),HT29 cells; HT29,+
same,IC50,HT29 cells,159 µM
same,Effect (anti-proliferation effect),IMR90 cells; IMR90,−
same,IC50,IMR90 cells,> 5000 µM
same,Effect (anti-proliferation effect),MRC-5 cells; MRC-5,−
same,IC50,MRC-5 cells,> 5000 µM
same,IC50,A375 cells,163 µM
same,Toxicity: symptoms registered,[1]; 50 mg/kg orally,no side effects and No
same,Toxicity: symptoms registered,[1]; 75 mg/kg orally,No
same,Toxicity: symptoms registered,[1]; 100 mg/kg orally,No
same,Toxicity: symptoms registered,[1]; 150 mg/kg orally,No
same,Toxicity: symptoms registered,[1]; 200 mg/kg orally,No
same,"Toxicity: Behaviour symptoms, percentage of animals",[1]; 400 mg/kg orally,Behaviour 16%
same,"Toxicity: Diarrhoea, percentage of animals",[1]; 400 mg/kg orally,Diarrhoea 16%
same,"Toxicity: Behaviour symptoms, percentage of animals",[1]; 600 mg/kg orally,Behaviour 50%
same,"Toxicity: Diarrhoea, percentage of animals",[1]; 600 mg/kg orally,Diarrhoea 32%
same,loss of body weight,Body weight of SHR rats; 600 mg/kg,21 gram
same,plasmatic TG levels after treatment,[2]; 600 mg/kg,81 mg/dL
same,CHOt levels after treatment,[2]; 600 mg/kg,59 mg/dL
same,plasma glucose levels (glycemia),[3],significant reductions
"CCCCCCCC/C=C\CCCCCCC(O)C(=O)O (racemic) [2OHOA, 2-hydroxyoleic acid]",synthesis of SM,"U118 cells; U118, 200 μM, 24 hours",significant increase
same,SM levels in the cell membrane (activation of enzyme EC 2.7.8.27),U118 cells,significant increases in SM levels
same,IC50,SF767 cells; Homo sapiens,215 µM
same,IC50,"U87 cells; Homo sapiens, U-87 MG",81.6 µM
same,IC50,SH-SY5Y cells; Homo sapiens,119 µM
same,IC50,"A549 cells; Homo sapiens, A549, A549, sodium salt form",94.1 ± 8.8 µM
same,IC50,Jurkat cells; Homo sapiens,62.9 µM
same,IC50,HepG2 cells; Homo sapiens,41.4 µM
same,IC50,MDA-MB-231 cells; Homo sapiens,244 µM
same,IC50,"PC3 cells; Homo sapiens, PC-3",138 µM
same,IC50,"BXPC3 cells; Homo sapiens, BXPC-3",98.3 µM
same,IC50,HeLa cells; Homo sapiens,127 µM
same,IC50,"HT29 cells; Homo sapiens, HT-29",225 µM
same,IC50,"IMR90 cells; Homo sapiens, IMR-90",> 5000 µM
same,IC50,"MRC-5 cells; Homo sapiens, MRC5",> 5000 µM
same,IC50,"A375 cells; Homo sapiens, A-375",273 µM
same,Toxicity: symptoms registered,[1]; 50 mg/kg orally,No
same,Toxicity: symptoms registered,[1]; 75 mg/kg orally,No
same,Toxicity: symptoms registered,[1]; 100 mg/kg orally,No
same,Toxicity: symptoms registered,[1]; 150 mg/kg orally,No
same,"Toxicity: Behaviour symptoms, percentage of animals",[1]; 200 mg/kg orally,Behaviour 16%
same,"Toxicity: Diarrhoea, percentage of animals",[1]; 200 mg/kg orally,Diarrhoea 16%
same,"Toxicity: Behaviour symptoms, percentage of animals",[1]; 400 mg/kg orally,Behaviour 16%
same,"Toxicity: Diarrhoea, percentage of animals",[1]; 400 mg/kg orally,Diarrhoea 32%
same,"Toxicity: Behaviour symptoms, percentage of animals",[1]; 600 mg/kg orally,Behaviour 50%
same,"Toxicity: Diarrhoea, percentage of animals",[1]; 600 mg/kg orally,Diarrhoea 50%
same,side effects,"[1]; 600 mg/kg, 15 days orally",important side effects
same,loss of body weight,Body weight of SHR rats,11 gram
same,loss of body weight as share of body weight,Body weight of SHR rats,~3%
same,CHOt levels after treatment,[2],43 mg/dL
same,plasma glucose levels (glycemia),[3],significant reductions

# Source: patent US9359281B2, “Enantiomers of 2-hydroxy derivatives of fatty acids” (UNIVERSITAT DE LES ILLES BALEARS, priority 2011, dated 2016)
